Test results reported in ChEMBL document CHEMBL5325471, “Identification of new modulator of DNA repairing pathways based on natural product (±)-peharmaline A” (Bioorg Med Chem, 2023).

Legend:
A549 = assay: Antiproliferative activity against human A549 cells assessed as cell growth inhibition incubated for 44 hrs by MTT assay; assay type: functional, cell-based; details: A549, 44 h
[1] = Cytotoxicity against human fR2 cells assessed as cell growth inhibition incubated for 44 hrs by MTT assay; assay type: toxicity, cell-based
HL-60 = assay: Cytotoxicity against human HL-60 cells; assay type: functional, cell-based
SGC-7901 = assay: Cytotoxicity against human SGC-7901 cells; assay type: functional, cell-based
PC-3 [2] = assay: Cytotoxicity against human PC-3 cells; assay type: functional, cell-based
MCF7 = assay: Antiproliferative activity against human MCF7 cells assessed as cell growth inhibition incubated for 44 hrs by MTT assay; assay type: functional, cell-based; details: MCF7, 44 h
PC-3 [3] = assay: Antiproliferative activity against human PC-3 cells assessed as cell growth inhibition incubated for 44 hrs by MTT assay; assay type: functional, cell-based; details: PC-3, 44 h
HCT-116 = assay: Antiproliferative activity against human HCT-116 cells assessed as cell growth inhibition incubated for 44 hrs by MTT assay; assay type: functional, cell-based; details: HCT-116, 44 h

| SMILES | IC50 (A549) [µM] | IC50 at 44 h [1] [µM] | IC50 (HL-60) [µM] | IC50 (SGC-7901) [µM] | IC50 (PC-3 [2]) [µM] | IC50 (MCF7) [µM] | IC50 (PC-3 [3]) [µM] | IC50 (HCT-116) [µM] |
| --- | --- | --- | --- | --- | --- | --- | --- | --- |
| COC(=O)[C@]1([C@H]2CCn3c2nc2ccccc2c3=O)NCCc2c1[nH]c1cc(OC)ccc21 (racemic) | 5.24 | 17.9 | 9.2 | 25.4 | 21.6 | 6.22 | 12.2 | 15.4 |
| COC(=O)[C@]1([C@H]2CCN(C(=O)c3ccccc3)C2=O)NCCc2c1[nH]c1ccccc21 (racemic) | 17.3 | > 100 |  |  |  | > 100 | > 100 | 16.4 |
| COC(=O)[C@]1([C@H]2CCCCn3c2nc2ccccc2c3=O)NCCc2c1[nH]c1ccccc21 | 7.91 | 35.6 |  |  |  | 6.95 | 6.47 | 5.35 |
| CCOC(=O)[C@]1([C@H]2CCNC2=O)NCCc2c1[nH]c1ccccc21 (racemic) | > 100 | > 100 |  |  |  | > 100 | > 100 | > 100 |
| CCOC(=O)[C@]1([C@H]2CCN(C(=O)c3ccccc3Cl)C2=O)NCCc2c1[nH]c1ccccc21 (racemic) | 72.8 | 84 |  |  |  | 20.4 | 22.8 | 55.8 |
| COC(=O)[C@]1([C@@H]2CCNC2=O)NCCc2c1[nH]c1cc(OC)ccc21 | > 100 | > 100 |  |  |  | > 100 | 91.7 | 7.48 |
| COC(=O)[C@]1([C@H]2CCCCN(C(=O)c3ccccc3[N+](=O)[O-])C2=O)NCCc2c1[nH]c1ccccc21 | 35.8 | 30.2 |  |  |  | 7.43 | 36.5 | 15.1 |
| COC(=O)[C@]1([C@H]2CCN(C(=O)c3ccc(Cl)cc3)C2=O)NCCc2c1[nH]c1ccccc21 (racemic) | 20.4 | > 100 |  |  |  | > 100 | > 100 | 19.7 |
| COC(=O)[C@]1([C@H]2CCN(C(=O)c3ccccc3F)C2=O)NCCc2c1[nH]c1ccccc21 (racemic) | 6.45 | > 100 |  |  |  | 6.96 | 5.96 | 8.65 |
| COC(=O)[C@@H]1Cc2c([nH]c3ccccc23)[C@@](C(=O)OC)([C@H]2CCCn3c2nc2ccccc2c3=O)N1 | 10.4 | 33.2 |  |  |  | 6.2 | 13 | 6.26 |
| COC(=O)[C@]1([C@H]2CCN(C(=O)C3CCC3)C2=O)NCCc2c1[nH]c1ccccc21 (racemic) | 23.7 | > 100 |  |  |  | > 100 | > 100 | 25.6 |
| COC(=O)[C@]1([C@H]2CCN(C(=O)c3ccccc3Br)C2=O)NCCc2c1[nH]c1ccccc21 (racemic) | 3.37 | 89.8 |  |  |  | 8.12 | 6.23 | 3.92 |
| COC(=O)[C@]1([C@H]2CCN(C(=O)c3ccc(Cl)cc3[N+](=O)[O-])C2=O)NCCc2c1[nH]c1ccccc21 (racemic) | > 100 | > 100 |  |  |  | > 100 | > 100 | > 100 |
| COC(=O)[C@@H]1Cc2c([nH]c3ccccc23)[C@@](C(=O)OC)([C@H]2CCCN(C(=O)c3ccccc3[N+](=O)[O-])C2=O)N1 | 19.4 | > 100 |  |  |  | > 100 | > 100 | > 100 |
| COC(=O)[C@]1([C@H]2CCCN(C(=O)c3ccccc3[N+](=O)[O-])C2=O)NCCc2c1[nH]c1ccccc21 | 39.1 | > 100 |  |  |  | 51.2 | > 100 | 42.2 |
| COC(=O)[C@]1([C@H]2CCN(C(=O)c3ccc(C(F)(F)F)cc3Cl)C2=O)NCCc2c1[nH]c1ccccc21 (racemic) | 0.845 | 39.2 |  |  |  | 4.51 | 13.5 | 3 |
| COC(=O)[C@]1([C@H]2CCN(C(=O)c3ccc(Cl)cc3Cl)C2=O)NCCc2c1[nH]c1ccccc21 (racemic) | 10.8 | > 100 |  |  |  | 8.36 | 11.1 | 8.79 |

| SMILES | IC50 (A549) [µM] | IC50 at 44 h [1] [µM] | IC50 (HL-60) [µM] | IC50 (SGC-7901) [µM] | IC50 (PC-3 [2]) [µM] | IC50 (MCF7) [µM] | IC50 (PC-3 [3]) [µM] | IC50 (HCT-116) [µM] |
| --- | --- | --- | --- | --- | --- | --- | --- | --- |
| CCOC(=O)[C@]1([C@H]2CCN(C(=O)c3ccccc3[N+](=O)[O-])C2=O)NCCc2c1[nH]c1ccccc21 (racemic) | 10.7 | > 100 |  |  |  | 28.1 | > 100 | > 100 |
| COC(=O)[C@]1([C@H]2CCN(C(=O)c3ccccc3[N+](=O)[O-])C2=O)NCCc2c1[nH]c1ccccc21 | > 100 | > 100 |  |  |  | 51.3 | > 100 | > 100 |
| COC(=O)[C@]1([C@H]2CCN(C(=O)c3ccccc3Cl)C2=O)NCCc2c1[nH]c1ccccc21 (racemic) | 1.12 | 20 |  |  |  | 1.62 | 2.39 | 4.12 |
| COC(=O)[C@]1([C@H]2CCCN(C(=O)c3ccccc3Cl)C2=O)NCCc2c1[nH]c1ccccc21 (racemic) | 5.21 | > 100 |  |  |  | 47.7 | 43.7 | 5.34 |
| COC(=O)[C@]1([C@H]2CCCCNC2=O)NCCc2c1[nH]c1ccccc21 | > 100 | > 100 |  |  |  | 93.3 | > 100 | > 100 |
| COC(=O)[C@]1([C@H]2CCN(C(=O)c3ccccc3[N+](=O)[O-])C2=O)NCCc2c1[nH]c1cc(OC)ccc21 | 12.7 | 17.8 |  |  |  | 16.1 | 31 | 6.19 |
| COC(=O)[C@]1([C@H]2CCCNC2=O)NCCc2c1[nH]c1ccccc21 | > 100 | > 100 |  |  |  | > 100 | 35 | > 100 |
| COC(=O)[C@]1([C@H]2CCN(C(=O)c3ccc(F)cc3)C2=O)NCCc2c1[nH]c1ccccc21 (racemic) | 7.8 | 35.8 |  |  |  | > 5.04 | 17 | 10.1 |
| COC(=O)[C@]1([C@H]2CCN(C(=O)c3ccc(C)cc3[N+](=O)[O-])C2=O)NCCc2c1[nH]c1ccccc21 (racemic) | 16.3 | > 100 |  |  |  | > 100 | > 100 | > 100 |
| COC(=O)[C@]1([C@H]2CCNC2=O)NCCc2c1[nH]c1ccccc21 | 39.8 | > 100 |  |  |  | > 100 | 75.1 | 25.6 |
| COC(=O)[C@]1([C@H]2CCN(C(=O)c3ccccc3I)C2=O)NCCc2c1[nH]c1ccccc21 (racemic) | 5.02 | > 100 |  |  |  | 8.36 | 7.02 | 5.76 |
| COC(=O)[C@]1([C@H]2CCCn3c2nc2ccccc2c3=O)NCCc2c1[nH]c1ccccc21 | 6.88 | 93.6 |  |  |  | 3.28 | 4.95 | 4.15 |
| COC(=O)[C@@H]1Cc2c([nH]c3ccccc23)[C@@](C(=O)OC)([C@H]2CCNC2=O)N1 | 20.4 | > 100 |  |  |  | > 100 | > 100 | 27.4 |
| COC(=O)[C@]1([C@H]2CCN(C(=O)c3cccs3)C2=O)NCCc2c1[nH]c1ccccc21 (racemic) | 17.9 | 39.2 |  |  |  | 15.9 | 94.4 | 14 |
| COC(=O)[C@]1([C@H]2CCNC2=O)NCCc2c1[nH]c1cc(OC)ccc21 | 16.6 | > 100 |  |  |  | 81.6 | > 100 | > 100 |
| COC(=O)[C@]1([C@H]2CCN(C(=O)c3ccc(C)cc3C)C2=O)NCCc2c1[nH]c1ccccc21 (racemic) | 16.3 | > 100 |  |  |  | > 100 | 59.7 | 11.2 |
